US7220775B2, “Compound useful for the treatment of neuropathic pain” (H. Lundbeck A/S, priority 2002, dated 2007)

Key:
Human 5HT1D receptor = biological target: T1, Human 5HT1D receptor (Homo sapiens, UniProt P28221); experiment: 5HT1D receptor binding ([3H]-serotonin); details: Table 8
T1 construct: expressed in transfected cells
Procedure: (§1) Human 5HT1B, 5HT1D, 5HT1E, 5HT1F, and 5HT7 Receptors: The cell lysates of LM(tk−) clonal cell line stably transfected with the genes encoding each of these 5HT receptor-subtypes were prepared as described above. Cell membranes were suspended in 50 mM Tris-HCl buffer (pH 7.4 at 37° C.) containing 10 mM MgCl2, 0.2 mM EDTA, 10 µM pargyline, and 0.1% ascorbate. […] Nonspecific binding was determined in the presence of 10 μM serotonin. The bound radioligand was separated by filtration through GF/B filters using a cell harvester.

Human 5HT1E receptor = biological target: T2, Human 5HT1E receptor (Homo sapiens, UniProt P28566); experiment: 5HT1E receptor binding ([3H]-serotonin); details: Table 8
T2 construct: expressed in transfected cells
T2 sequence (P28566 whole entry): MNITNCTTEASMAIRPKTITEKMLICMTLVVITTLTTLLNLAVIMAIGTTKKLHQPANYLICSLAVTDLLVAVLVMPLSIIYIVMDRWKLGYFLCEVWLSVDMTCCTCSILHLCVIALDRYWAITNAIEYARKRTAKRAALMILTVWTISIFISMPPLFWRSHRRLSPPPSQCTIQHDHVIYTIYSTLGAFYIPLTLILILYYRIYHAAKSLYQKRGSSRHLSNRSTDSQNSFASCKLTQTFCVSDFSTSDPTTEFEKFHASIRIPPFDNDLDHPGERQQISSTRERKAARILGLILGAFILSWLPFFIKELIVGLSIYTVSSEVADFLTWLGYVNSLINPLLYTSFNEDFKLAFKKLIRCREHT
Procedure: as §1

h5HT6 = biological target: T3, h5HT6 (Homo sapiens, UniProt P50406); experiment: 5-HT6 receptor binding; details: Table 8
T3 construct: expressed in transfected cells
T3 sequence (P50406 whole entry): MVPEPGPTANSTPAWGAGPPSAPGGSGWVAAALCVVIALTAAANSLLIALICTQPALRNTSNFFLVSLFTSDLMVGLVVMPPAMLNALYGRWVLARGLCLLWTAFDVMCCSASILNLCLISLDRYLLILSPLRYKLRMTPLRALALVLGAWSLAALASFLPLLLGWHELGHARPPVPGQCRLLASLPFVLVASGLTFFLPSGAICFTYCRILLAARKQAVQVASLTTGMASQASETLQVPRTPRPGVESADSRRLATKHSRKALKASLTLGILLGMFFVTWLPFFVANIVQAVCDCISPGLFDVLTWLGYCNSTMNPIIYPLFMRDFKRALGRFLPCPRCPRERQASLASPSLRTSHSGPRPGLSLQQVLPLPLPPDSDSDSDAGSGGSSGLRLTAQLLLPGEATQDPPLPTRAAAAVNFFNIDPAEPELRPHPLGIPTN
Procedure: Other 5-HT Receptors: Other serotonin receptor binding assays were performed according to published methods: rat 5HT2C receptor (Julius et al., 1988); and 5-HT6 (Monsma, et al., 1993). The binding assays using the 5-HT4 receptor were performed according to the procedures described in U.S. Pat. No. 5,766,879, the disclosure of which is hereby incorporated by reference in its entirety into this application.

[1] = biological target: T4, 5HT transporter (r5HT Uptk) (Rattus norvegicus, UniProt P31652); experiment: Binding at native 5HT transporter; details: Table 8
T4 construct: native, tissue-derived transporters; from tissue
T4 sequence (P31652 whole entry): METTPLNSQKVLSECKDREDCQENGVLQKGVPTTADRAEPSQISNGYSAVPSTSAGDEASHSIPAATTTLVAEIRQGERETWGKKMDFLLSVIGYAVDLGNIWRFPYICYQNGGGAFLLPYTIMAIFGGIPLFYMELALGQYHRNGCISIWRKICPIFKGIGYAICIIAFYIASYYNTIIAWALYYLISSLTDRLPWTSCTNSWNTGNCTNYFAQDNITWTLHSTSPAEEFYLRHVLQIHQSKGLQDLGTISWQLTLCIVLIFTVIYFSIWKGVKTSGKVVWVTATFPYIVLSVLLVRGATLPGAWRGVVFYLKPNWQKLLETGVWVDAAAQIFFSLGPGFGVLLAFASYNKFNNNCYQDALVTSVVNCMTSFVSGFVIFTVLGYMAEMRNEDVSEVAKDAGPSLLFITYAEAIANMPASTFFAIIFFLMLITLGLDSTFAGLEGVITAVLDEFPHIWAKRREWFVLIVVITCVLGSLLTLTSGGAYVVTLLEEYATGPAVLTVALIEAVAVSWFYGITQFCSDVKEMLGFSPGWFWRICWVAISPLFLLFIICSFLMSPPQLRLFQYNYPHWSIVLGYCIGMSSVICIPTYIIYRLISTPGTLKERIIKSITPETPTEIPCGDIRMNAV
Procedure: The binding properties of the compounds of the present invention were evaluated at one or more cloned receptors or native, tissue-derived transporters, using protocols described below.
The methods to determine binding affinity at native transporters are described in the following publications: 5HT transporter and NE transporter (Owens et al., 1997), and DA transporter (Javitch et al, 1984).

human α1B adrenoceptor = biological target: T5, human α1B adrenoceptor (Homo sapiens, UniProt P35368); experiment: α1B adrenergic receptor binding; details: Table 10
T5 construct: expressed in transfected cells
T5 sequence (P35368 whole entry): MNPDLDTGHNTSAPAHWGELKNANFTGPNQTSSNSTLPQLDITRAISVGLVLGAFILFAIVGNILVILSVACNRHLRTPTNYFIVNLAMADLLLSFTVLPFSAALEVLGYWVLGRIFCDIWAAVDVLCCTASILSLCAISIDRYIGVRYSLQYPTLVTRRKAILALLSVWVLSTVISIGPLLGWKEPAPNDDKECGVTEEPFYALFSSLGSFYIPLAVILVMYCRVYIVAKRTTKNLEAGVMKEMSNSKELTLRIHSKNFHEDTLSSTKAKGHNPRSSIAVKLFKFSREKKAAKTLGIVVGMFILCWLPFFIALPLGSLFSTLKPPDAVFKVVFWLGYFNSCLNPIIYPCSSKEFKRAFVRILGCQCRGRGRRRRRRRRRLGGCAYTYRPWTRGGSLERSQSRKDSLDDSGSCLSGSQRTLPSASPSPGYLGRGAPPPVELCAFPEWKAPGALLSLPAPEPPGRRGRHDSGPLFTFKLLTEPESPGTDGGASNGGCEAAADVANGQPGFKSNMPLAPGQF
Source text: (§2) Other receptors: Cell membranes expressing human dopamine D1, D2, D4 and rat D3 receptors were purchased through BioSignal, Inc. (Montreal, Canada). Binding assays using the histamine H, receptor; dopamine receptors; and α1A, α1B, and α2 adrenergic receptors may be carried out according to the procedures described in U.S. Pat. No. 5,780,485, the disclosure of which is hereby incorporated by reference in its entirety into this application. Binding assays using the dopamine D5 receptor may be carried out according to the procedures described in U.S. Pat. No. 5,882,855, the disclosure of which is hereby incorporated by reference in its entirety into this application. Binding assays for the human α1D adrenergic receptor may be carried out according to the procedures described in U.S. Pat. No. 6,156,518, the disclosure of which is hereby incorporated by reference in its entirety into this application.

human α2C adrenoceptor = biological target: T6, human α2C adrenoceptor (Homo sapiens, UniProt P18825); experiment: α2C adrenergic receptor binding; details: Table 10
T6 construct: expressed in transfected cells
T6 sequence (P18825 whole entry): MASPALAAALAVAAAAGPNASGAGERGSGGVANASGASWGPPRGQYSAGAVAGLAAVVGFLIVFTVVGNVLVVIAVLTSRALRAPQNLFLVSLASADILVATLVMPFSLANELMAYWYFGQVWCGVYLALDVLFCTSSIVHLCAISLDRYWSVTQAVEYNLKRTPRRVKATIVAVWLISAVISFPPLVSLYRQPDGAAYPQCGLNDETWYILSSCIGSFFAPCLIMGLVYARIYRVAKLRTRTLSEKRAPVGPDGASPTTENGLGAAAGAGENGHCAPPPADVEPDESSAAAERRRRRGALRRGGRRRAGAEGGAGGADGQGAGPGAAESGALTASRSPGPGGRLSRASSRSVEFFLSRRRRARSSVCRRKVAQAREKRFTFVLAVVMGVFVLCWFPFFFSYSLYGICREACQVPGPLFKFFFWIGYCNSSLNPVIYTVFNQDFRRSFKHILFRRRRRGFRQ
Source text: as §2

[2] = biological target: T7, human dopamine D2 receptor (Homo sapiens, UniProt P14416); experiment: Dopamine D2 receptor binding; details: Table 10
T7 construct: purchased BioSignal, Inc. (Montreal, Canada)
T7 sequence (P14416 whole entry): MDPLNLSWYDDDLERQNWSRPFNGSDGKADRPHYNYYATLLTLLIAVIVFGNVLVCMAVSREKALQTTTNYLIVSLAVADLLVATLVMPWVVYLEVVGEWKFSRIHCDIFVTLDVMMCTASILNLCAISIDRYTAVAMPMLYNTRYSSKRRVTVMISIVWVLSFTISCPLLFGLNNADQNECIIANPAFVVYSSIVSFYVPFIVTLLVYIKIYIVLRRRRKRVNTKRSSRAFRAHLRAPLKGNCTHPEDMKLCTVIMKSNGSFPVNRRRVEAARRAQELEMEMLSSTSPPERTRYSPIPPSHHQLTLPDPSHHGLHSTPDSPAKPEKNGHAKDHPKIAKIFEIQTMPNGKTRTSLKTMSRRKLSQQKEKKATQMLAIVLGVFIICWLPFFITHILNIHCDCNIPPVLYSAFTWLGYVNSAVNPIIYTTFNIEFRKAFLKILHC
Source text: as §2

[3] = biological target: human histamine H1 receptor (Homo sapiens, UniProt P35367); experiment: Histamine H1 receptor binding; details: Table 10
Chain of human histamine H1 receptor (P35367 whole entry): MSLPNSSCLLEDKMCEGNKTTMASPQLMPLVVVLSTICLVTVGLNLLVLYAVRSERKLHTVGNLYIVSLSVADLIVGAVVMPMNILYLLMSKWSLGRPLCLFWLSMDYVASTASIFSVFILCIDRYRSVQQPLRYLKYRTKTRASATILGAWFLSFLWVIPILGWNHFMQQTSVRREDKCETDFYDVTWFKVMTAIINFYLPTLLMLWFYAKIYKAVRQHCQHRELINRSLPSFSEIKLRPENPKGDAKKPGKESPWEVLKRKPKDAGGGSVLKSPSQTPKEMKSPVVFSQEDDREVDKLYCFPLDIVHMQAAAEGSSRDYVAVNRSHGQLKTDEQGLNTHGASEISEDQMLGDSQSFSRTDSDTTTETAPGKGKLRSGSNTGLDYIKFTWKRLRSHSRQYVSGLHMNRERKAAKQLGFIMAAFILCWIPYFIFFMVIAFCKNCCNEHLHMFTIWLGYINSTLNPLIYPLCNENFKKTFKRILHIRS
Source text: as §2

[4] = system: neuropathic rats (chronic constriction nerve injury); experiment: Chronic constriction nerve injury model of neuropathic pain: thermal hyperalgesia (Thermal Plantar Test); format: in vivo, rat
Procedure: The aim of this study was to assess the potential analgesic effects of Example 92 following intraperitoneal administration at the doses of 3, 10 and 30 mg/kg, respectively, in an animal model of neuropathic pain. A peripheral mononeuropathy was induced in the right hind limb of rats following a chronic constriction nerve injury (Bennett and Xie, 1988), and the development of mechanical allodynia and thermal hyperalgesia was monitored using established behavioral tests (Attal, N., et al., 1990; Hargreaves, K., et al., 1988).
Male Sprague-Dawley rats within the weight range of 200-225 g, and approximate age 7-9 weeks, were allowed to acclimate for a minimum of 6 days prior to the start of the behavioral testing.
All rats underwent a chronic constriction nerve injury, and of these, those that successfully developed allodynia and hyperalgesia were allocated to treatment groups.
There were 5 separate treatment groups (with a minimum of 10 rats per group). The treatment groups were as follows: • Group C received Morphine at 10 mg/kg (n=10) • Group D received Vehicle for Example 92* at 1 ml/kg (n=10) (* 100% DMSO) • Group E received Example 92 at 30 mg/kg (n=10) • Group F received Example 92 at 3 mg/kg (n=10) • Group G received Example 92 at 10 mg/kg (n=10)
The dose volume for all treatments was 1 ml/kg. Each rat received a single i.p. dose of the test substance, reference substance or vehicle on Day 12 PO. Test substance and vehicle dosing solutions were encoded (C-G) so that the observers were unaware of the identity of the treatment groups.
The behavioral tests (Von Frey filament and Thermal Plantar Tests—see below) were performed on all rats on 3 separate days prior to […], to establish baseline values. The pre-surgery baseline values were calculated as the mean of the last 2 days testing (the data from the first day of testing were not included as this was classed as part of the acclimating period). The sequence of tests was always mechanical allodynia (Von Frey Test) followed by thermal hyperalgesia (Thermal Plantar Test), with a minimum 5 min period allowed between the 2 tests.
Each rat was placed in a clear plastic chamber with a glass floor and allowed a short period to acclimatize to the new environment (approximately 5 min.). The animals were then challenged with a radiant Infrared (IR) heat source, directed at the plantar surface of the hind paw from below, and the withdrawal latency of both the ipsilateral and contralateral hind paws was evaluated. The infrared intensity was set at IR50 and the maximum length of exposure to the IR source was 18 s. Non-responding animals were allocated a withdrawal latency of 18 s.
The animals were surgically prepared over 5 days. […]

T1 sequence (P28221 whole entry): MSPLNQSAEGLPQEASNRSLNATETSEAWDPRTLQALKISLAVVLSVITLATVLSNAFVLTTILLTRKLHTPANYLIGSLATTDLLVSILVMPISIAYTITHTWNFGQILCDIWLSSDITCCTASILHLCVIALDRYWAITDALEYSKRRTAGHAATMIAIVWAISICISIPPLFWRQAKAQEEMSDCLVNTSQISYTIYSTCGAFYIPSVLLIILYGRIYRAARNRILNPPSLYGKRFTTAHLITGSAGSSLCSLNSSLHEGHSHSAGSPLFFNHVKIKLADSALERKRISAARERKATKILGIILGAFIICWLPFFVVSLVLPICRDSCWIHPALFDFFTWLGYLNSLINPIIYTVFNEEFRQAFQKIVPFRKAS

O=C1C(=Nc2cccc(C(F)(F)F)c2)c2ccccc2N1c1ccccc1 [Example 92, 1-PHENYL-3-[[3-(TRIFLUOROMETHYL)PHENYL]IMINO]-1,3-DIHYDRO-2H-INDOL-2-ONE]
selectivity ratio h5HT1D (Ki h5HT1D / Ki hGAL3) (Human 5HT1D receptor): >100 | selectivity ratio h5HT1E (Ki h5HT1E / Ki hGAL3) (Human 5HT1E receptor): >100 | selectivity ratio h5HT6 (Ki h5HT6 / Ki hGAL3) (h5HT6): >100 | selectivity ratio r5HT Uptk (Ki r5HT Uptk / Ki hGAL3) [1]: >100 | selectivity ratio hα1B (Ki hα1B / Ki hGAL3) (human α1B adrenoceptor): >100 | selectivity ratio hα2C (Ki hα2C / Ki hGAL3) (human α2C adrenoceptor): >100 | selectivity ratio hD2 (Ki hD2 / Ki hGAL3) [2]: >100 | selectivity ratio hH1 (Ki hH1 / Ki hGAL3) [3]: >100 | responses of the uninjured (contralateral) left paw (thermal plantar) vs vehicle ([4]; 3, 10, 30 mg/kg i.p., any time point): No significant changes | effect on withdrawal latency of the nerve-injured hind paw to the thermal plantar device ([4]; 3, 10 and 30 mg/kg i.p., approx. 40 and 100 min PD): no significant effect
